The subject of test [1] is IFN-β secretion in THP1 cells. As to the kind of experiment: IFN-β secretion in THP1 cell culture (5 h). Format: cell-based, human. The procedure, abridged: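 THP1 cells incubated with compound for 5 h at 37 °C, 5% CO2, and secreted IFN-β in supernatant quantified by AlphaLISA. Percent effect normalised to 30 uM cGAMP positive control and 0.3% DMSO. EC50 from 4-parameter fit.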

The next test concerns the target full-length WT STING (Homo sapiens (Human), UniProt Q86WV6, H232R). As to the kind of experiment: 3H-cGAMP filtration binding assay (WT STING). The protocol:
The ability of compounds to bind STING is quantified by their ability to compete with tritiated cGAMP ligand for human STING receptor membrane using a radioactive filter-binding assay.
The basic WT STING filtration assay protocol is as follows:
Tritium levels for each reaction well were then measured using a PerkinElmer TopCount plate reader.
After normalization to controls, the percent activity for each compound concentration was calculated by measuring the amount of remaining radioactivity. The plot of percent activity versus the log of compound concentration was fit with a 4-parameter dose response equation to calculate EC50 values.

In the next test the target is full-length HAQ STING (Homo sapiens (Human), UniProt Q86WV6, G230A/H232R/R293Q/R71H). As to the kind of experiment: 3H-cGAMP filtration binding assay (HAQ STING). The conditions noted are these: competition with tritiated cGAMP, HAQ STING membrane; read-out: EC50 (nM), 3H-cGAMP filtration binding assay for HAQ STING. The procedure, abridged:
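Competition binding of compounds against 8 nM [3H]cGAMP working stock on Hi-Five cell membranes overexpressing full-length HAQ STING; compound and membrane preincubated 60 min at RT before ligand addition. Bound radioactivity read by filtration and scintillation counting; percent activity normalized to controls, EC50 from 4-parameter fit.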

Setting [2] is: IFN-β secretion in THP1 cell culture, 5 h, compound at 30 μM, percent activation relative to 2′3′-cGAMP.
Setting [3] is: competition with tritiated cGAMP, WT STING membrane; read-out: EC50 (nM), 3H-cGAMP filtration binding assay for WT STING.
Where [4] appears, read: read-out: % Inh @ 20 uM, 3H-cGAMP filtration binding assay for WT STING.

Each structure is given as a SMILES string. Like-named read-outs stand apart in the source and are kept apart here. Some results are limits rather than exact numbers.

The values below come from patent publication US11453697B1, “Cyclic di-nucleotide compounds as sting agonists” (Merck Sharp & Dohme Corp., priority 2015, dated 2022).

Chain of full-length WT STING (Q86WV6 other isoform, or with tags, fused parts or gaps H232R (already in the parent)): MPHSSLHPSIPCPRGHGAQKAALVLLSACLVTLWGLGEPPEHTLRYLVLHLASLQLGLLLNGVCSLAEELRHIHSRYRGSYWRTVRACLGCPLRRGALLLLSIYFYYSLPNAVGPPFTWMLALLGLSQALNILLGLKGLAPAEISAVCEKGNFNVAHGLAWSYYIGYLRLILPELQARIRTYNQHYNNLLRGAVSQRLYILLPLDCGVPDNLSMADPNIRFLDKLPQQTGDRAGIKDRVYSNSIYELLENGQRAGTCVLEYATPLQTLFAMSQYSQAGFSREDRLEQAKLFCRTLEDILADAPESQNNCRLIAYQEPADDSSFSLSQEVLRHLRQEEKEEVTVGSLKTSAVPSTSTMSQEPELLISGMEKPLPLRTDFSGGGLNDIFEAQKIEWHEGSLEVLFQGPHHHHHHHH
Chain of full-length HAQ STING (Q86WV6 other isoform, or with tags, fused parts or gaps, stated change not applied): as the sequence (Q86WV6 other isoform, or with tags, fused parts or gaps H232R (already in the parent)) above, with R71H, G230A, R293Q counted along it

With `Nc1nc2c(ncn2[C@@H]2O[C@@H]3COP(O)(=S)O[C@H]4[C@H](F)[C@H](n5cnc6c(N)ncnc65)O[C@@H]4COP(O)(=S)O[C@@H]2C3(F)F)c(=O)[nH]1` (single isomer, unassigned) [Example 155], the “% Effect at 30 μM relative to 2′3′-cGAMP” value in test [1] is 139%. Besides, at full-length WT STING (EC50 (nM), 3H-cGAMP filtration binding assay for WT STING, competition with tritiated cGAMP, WT STING membrane), the EC50 was < 1 nM.
Consider `Nc1nc2c(ncn2[C@@H]2O[C@@H]3COP(=O)(S)O[C@H]4C[C@H](n5cc(F)c6c(N)ncnc65)O[C@@H]4COP(=O)(O)O[C@@H]2[C@@H]3F)c(=O)[nH]1` (stereo partly drawn) [Example 256, 2-amino-9-[(5R,7R,8S,12aR,14R,15aS,16R)-14-(4-amino-5-fluoro-7H-pyrrolo[2,3-d]pyrimidin-7-yl)-16-fluoro-10-hydroxy-2,10-dioxido-2-sulfanyloctahydro-12H-5,8-methanofuro[3,2-1][1,3,6,9,11,2,10]pentaoxadiphosphacyclo-tetradecin-7-yl]-1,9-dihydro-6H-purin-6-one], for which the “% Effect at 30 μM relative to 2′3′-cGAMP” value in test [1] (setting [2]) is on record as 149%. Besides, on full-length WT STING (setting [3]), the EC50 worked out at 93.5 nM.
On to `Nc1nc2c(ncn2[C@@H]2O[C@@H]3COP(=O)(S)O[C@H]4C[C@H](n5cc(F)c6c(N)ncnc65)O[C@@H]4COP(=O)(O)O[C@@H]2[C@@H]3F)c(=O)[nH]1` (stereo partly drawn) [Example 255, 2-amino-9-[(5R,7R,8S,12aR,14R,15aS,16R)-14-(4-amino-5-fluoro-7H-pyrrolo[2,3-d]pyrimidin-7-yl)-16-fluoro-10-hydroxy-2,10-dioxido-2-sulfanyloctahydro-12H-5,8-methanofuro[3,2-1][1,3,6,9,11,2,10]pentaoxadiphosphacyclo-tetradecin-7-yl]-1,9-dihydro-6H-purin-6-one], for which the “% Effect at 30 μM relative to 2′3′-cGAMP” value in test [1] (setting [2]) worked out at 49%. The EC50 on full-length WT STING (setting [3]) came out at 302 nM.
On to `Nc1nc2c(ncn2[C@@H]2O[C@@H]3COP(=O)(S)O[C@H]4C[C@H](c5cnc6c(=O)[nH]cnn56)O[C@@H]4COP(=O)(S)O[C@@H]2[C@@H]3F)c(=O)[nH]1` (stereo partly drawn) [Example 336, 7-[(5R,7R,8S,12aR,14R,15aS,16R)-7-(2-amino-6-oxo-1,6-dihydro-9H-purin-9-yl)-16-fluoro-2,10-dioxido-2,10-disulfanyloctahydro-12H-5,8-methanofuro[3,2-l][1,3,6,9,11,2,10]pentaoxadiphosphacyclotetradecin-14-yl]imidazo[2,1-f][1,2,4]triazin-4(3H)-one], for which the “% Effect at 30 μM relative to 2′3′-cGAMP” value in test [1] (setting [2]) is given as 85%. The EC50 at full-length WT STING (setting [3]) was 422 nM.
With `Nc1nc2c(ncn2[C@@H]2O[C@@H]3COP(O)(=S)O[C@H]4[C@H](F)[C@H](n5cnc6c(N)ncnc65)O[C@@H]4COP(O)(=S)O[C@@H]2C3(F)F)c(=O)[nH]1` (single isomer, unassigned) [Example 156], the “% Effect at 30 μM relative to 2′3′-cGAMP” value in test [1] was 119%. The EC50 at full-length WT STING (read-out: EC50 (nM), 3H-cGAMP filtration binding assay for WT STING; competition with tritiated cGAMP, WT STING membrane) is < 1 nM.
Consider `Nc1nc2c(ncn2[C@@H]2O[C@@H]3COP(=O)(S)O[C@H]4[C@H](F)[C@H](n5cnc6c(=O)[nH]cnc65)O[C@@H]4COP(=O)(S)O[C@@H]2C3)c(=O)[nH]1` (single isomer, unassigned) [Example 318], for which the “% Effect at 30 μM relative to 2′3′-cGAMP” value in test [1] (setting [2]) is listed as 150%. The EC50 at full-length HAQ STING turned out to be 6.2 nM.
Take `Nc1cc2c(ncn2[C@@H]2O[C@@H]3COP(=O)(S)O[C@H]4[C@H](F)[C@H](n5ccc6c(N)ncnc65)O[C@@H]4COP(=O)(S)O[C@@H]2[C@@H]3F)c(=O)[nH]1` (single isomer, unassigned) [Example 229]: the inhibition at 20 µM on full-length WT STING (setting [4]) was 31%.
For the molecule `Nc1nc2c(ncn2[C@@H]2O[C@@H]3COP(=O)(O)O[C@H]4[C@@H](O)[C@H](n5cnc6c(N)ncnc65)O[C@@H]4COP(=O)(O)O[C@@H]2[C@@H]3O)c(=S)[nH]1` [Example 53, 2-amino-9-[(5R,7R,8R,12aR,14R,15R,15aS,16R)-14-(6-amino-9H-purin-9-yl)-2,10,15,16-tetrahydroxy-2,10-dioxidooctahydro-12H-5,8-methanofuro[3,2-l][1,3,6,9,11,2,10]pentaoxadiphosphacyclotetradecin-7-yl]-1,9-dihydro-6H-purine-6-thione], the “% Effect at 30 μM relative to 2′3′-cGAMP” value in test [1] (setting [2]) was 127%. For the same molecule, on full-length HAQ STING, the EC50 was 1.7 nM.
Turning to `COCCc1ncnc2c1ncn2[C@@H]1O[C@@H]2COP(=O)(O)O[C@@H]3[C@H](O)[C@@H](COP(=O)(O)O[C@H]2[C@H]1O)O[C@H]3n1cnc2c(=O)[nH]c(N)nc21` [Example 57, 2-amino-9-{(5R,7R,8R,12aR,14R,15R,15aS,16R)-2,10,15,16-tetrahydroxy-14-[6-(2-methoxyethyl)-9H-purin-9-yl]-2,10-dioxidooctahydro-12H-5,8-methanofuro[3,2-l][1,3,6,9,11,2,10]pentaoxadiphosphacyclotetradecin-7-yl}-1,9-dihydro-6H-purin-6-one], in test [1] (setting [2]), the “% Effect at 30 μM relative to 2′3′-cGAMP” value turned out to be 7%. Besides, the EC50 on full-length HAQ STING was 438 nM.
Regarding `Nc1nc2c(nnn2[C@@H]2O[C@@H]3COP(O)(=S)O[C@@H]4[C@@H](COP(O)(=S)O[C@@H]2[C@H]3F)O[C@@H](n2ccc3c(N)ncnc32)C4(F)F)c(=O)[nH]1` (stereo partly drawn) [Example 220, 5-amino-3-[(5R,7R,8S,12aR,14R,15aR,16S)-14-(4-amino-7H-pyrrolo[2,3-d]pyrimidin-7-yl)-15,15,16-trifluoro-2,10-dihydroxy-2,10-disulfidooctahydro-12H-5,8-methanofuro[3,2-l][1,3,6,9,11,2,10]pentaoxadiphosphacyclotetra-decin-7-yl]-3,6-dihydro-7H-[1,2,3]triazolo[4,5-d]pyrimidin-7-one], in test [1], the “% Effect at 30 μM relative to 2′3′-cGAMP” value turned out to be 6%. For the same molecule, the inhibition at 20 µM at full-length WT STING (setting [4]) amounted to 29%.
On to `NC(=O)c1ncnc2c1ncn2[C@@H]1O[C@@H]2COP(=O)(O)O[C@@H]3[C@H](O)[C@@H](COP(=O)(O)O[C@H]2[C@H]1O)O[C@H]3n1cnc2c(=O)[nH]c(N)nc21` [Example 76, 9-[(5R,7R,8R,12aR,14R,15R,15aS,16R)-7-(2-amino-6-oxo-1,6-dihydro-9H-purin-9-yl)-2,10,15,16-tetrahydroxy-2,10-dioxidooctahydro-12H-5,8-methanofuro[3,2-l][1,3,6,9,11,2,10]pentaoxadiphosphacyclotetradecin-14-yl]-9H-purine-6-carboxamide], for which, in test [1] (setting [2]), the “% Effect at 30 μM relative to 2′3′-cGAMP” value is listed as 39%. On full-length HAQ STING, the EC50 was determined as 75.4 nM.
Regarding `Nc1nc2c(ncn2[C@@H]2O[C@@H]3COP(=O)(O)O[C@H]4[C@@H](F)[C@H](n5cnc6c(=O)[nH]cnc65)O[C@@H]4COP(=O)(O)O[C@@H]2[C@@H]3O)c(=O)[nH]1` [Example 293, 2-amino-9-[(5R,7R,8R,12aR,14R,15R,15aR,16R)-15-fluoro-2,10,16-trihydroxy-2,10-dioxido-14-(6-oxo-1,6-dihydro-9H-purin-9-yl)octahydro-12H-5,8-methanofuro[3,2-l] [1,3,6,9,11,2,10]pentaoxadiphosphacyclo-tetradecin-7-yl]-1,9-dihydro-6H-purin-6-one], the “% Effect at 30 μM relative to 2′3′-cGAMP” value in test [1] (setting [2]) was found to be 86%. Moreover, the EC50 on full-length HAQ STING turned out to be 1.9 nM.
For `Nc1nc2c(ncn2[C@@H]2O[C@@H]3COP(=O)(O)O[C@H]4[C@@H](O)[C@H](n5nnc6c(N)nccc65)O[C@@H]4COP(=O)(O)O[C@@H]2[C@@H]3O)c(=O)[nH]1` [Example 73, 2-amino-9-[(5R,7R,8R,12aR,14R,15R,15aS,16R)-14-(4-amino-1H-[1,2,3]triazolo[4,5-c]pyridin-1-yl)-2,10,15,16-tetrahydroxy-2,10-dioxidooctahydro-12H-5,8-methanofuro[3,2-l][1,3,6,9,11,2,10]pentaoxadiphosphacyclotetradecin-7-yl]-1,9-dihydro-6H-purin-6-one], in that order: 5% and 834 nM.
Consider `CNc1ncnc2c1ncn2[C@@H]1O[C@@H]2COP(=O)(O)O[C@@H]3[C@H](O)[C@@H](COP(=O)(O)O[C@H]2[C@H]1O)O[C@H]3n1cnc2c(=O)[nH]c(N)nc21` [Example 31, 2-amino-9-{(5R,7R,8R,12aR,14R,15R,15aS,16R)-2,10,15,16-tetrahydroxy-14-[6-(methylamino)-9H-purin-9-yl]-2,10-dioxidooctahydro-12H-5,8-methanofuro [3,2-l][1,3,6,9,11,2,10]pentaoxadiphosphacyclotetradecin-7-yl}-1,9-dihydro-6H-purin-6-one], for which the “% Effect at 30 μM relative to 2′3′-cGAMP” value in test [1] (setting [2]) amounted to 100%. Further, the EC50 on full-length HAQ STING was found to be 94 nM.
Regarding `NC[C@H]1[C@H]2OP(=O)(O)OC[C@H]3O[C@@H](n4cnc5c(N)ncnc54)[C@H](O)[C@@H]3OP(=O)(O)OC[C@H]1O[C@H]2n1cnc2c(=O)[nH]c(N)nc21` [Example 36, 2-amino-9-[(5S,7R,8R,12aR,14R,15R,15aS,16R)-16-(aminomethyl)-14-(6-amino-9H-purin-9-yl)-2,10,15-trihydroxy-2,10-dioxidooctahydro-12H-5,8-methanofuro[3,2-l][1,3,6,9,11,2,10]pentaoxadiphosphacyclotetradecin-7-yl]-1,9-dihydro-6H-purin-6-one], the “% Effect at 30 μM relative to 2′3′-cGAMP” value in test [1] (setting [2]) turned out to be 120%. Further, the EC50 at full-length HAQ STING was 21.5 nM.
